Molecular target: FGFR1 (Homo sapiens, UniProt P11362)
Experiment: FGFR1 Bioassay (in vitro kinase activity, ELISA)
Type: biochemical
Conditions: purified GST-FGFR1, poly(Glu-Tyr) substrate, read-out: FGFR IC50
Procedure: This assay is used to measure the in vitro kinase activity of FGF1-R in an ELISA assay.
1. Costar 96-well ELISA plates (Corning Catalog # 3369).
2. Poly(Glu-Tyr) (Sigma Catalog # P0275).
4. 50 mM Hepes Buffer Solution.
5. Blocking Buffer (5% BSA/PBS).
6. Purified GST-FGFR1 (SUGEN, Inc.)
7. Kinase Dilution Buffer.
Mix 500 μl 1M Hepes (GIBCO), 20 μl 5% BSA/PBS, 10 μl 100 mM sodium orthovanadate and 50 μl 5M NaCl.
9. ATP/MnCl2 phosphorylation mix: mix 20 μL ATP, 400 μL 1 M MnCl2 and 9.56 ml dH2O.
10. NUNC 96-well V bottom polypropylene plates (Applied Scientific Catalog # AS-72092).
Add 500 μL TWEEN to 1 liter TBS.
13. Rabbit polyclonal anti-phosphotyrosine serum (SUGEN, Inc.).
14. Goat anti-rabbit IgG peroxidase conjugate (Biosource, Catalog # ALI0404).
1. Coat Costar 96 well ELISA plates with 1 μg per well Poly(Glu-Tyr) in 100 μl PBS. Store overnight at 4° C.
2. Wash coated plates once with PBS.
3. Add 150 μL of 5% BSA/PBS Blocking Buffer to each well. Incubate, with shaking, for 1 hr at room temperature.
4. Wash plate 2× with PBS, then once with 50 mM Hepes. Pat plates on a paper towel to remove excess liquid and bubbles.
5. Add 25 μL of 0.4 mM test compound in 4% DMSO or 4% DMSO alone (controls) to plate.
6. Dilute purified GST-FGFR1 in Kinase Dilution Buffer (5 ng kinase/50 ul KDB/well).
7. Add 50 μL of diluted kinase to each well.
8. Start kinase reaction by adding 25 μl/well of freshly prepared ATP/Mn++ (0.4 ml 1M MnCl2, 40 μL 10 mM ATP, 9.56 ml dH2O), freshly prepared).
9. Stop reaction with 25 μL of 0.5M EDTA.
10. Wash plate 4× with fresh TBST.
11. Make up Antibody Dilution Buffer: For 50 ml, mix 5 ml of 5% BSA, 250 μl of 5% milk and 50 μl of 100 mM sodium vanadate, bring to final volume with 0.05% TBST.
12. Add 100 μl per well of anti-phosphotyrosine (1:10000 dilution in ADB). Incubate, with shaking for 1 hr. at room temperature.
14. Add 100 μl per well of Biosource Goat anti-rabbit IgG peroxidase conjugate (1:6000 dilution in ADB). Incubate, with shaking for 1 hr. at room temperature.
15. Wash as in step 10 and then with PBS to remove bubbles and excess TWEEN.
16. Add 100 μl of ABTS/H2O2 solution to each well.
17. Incubate, with shaking, for 10 to 20 minutes. Remove any bubbles.
18. Read assay on Dynatech MR7000 ELISA reader: test filter at 410 nM, reference filter at 630 nM.

Chain of FGFR1 (P11362 22-822, species assumed): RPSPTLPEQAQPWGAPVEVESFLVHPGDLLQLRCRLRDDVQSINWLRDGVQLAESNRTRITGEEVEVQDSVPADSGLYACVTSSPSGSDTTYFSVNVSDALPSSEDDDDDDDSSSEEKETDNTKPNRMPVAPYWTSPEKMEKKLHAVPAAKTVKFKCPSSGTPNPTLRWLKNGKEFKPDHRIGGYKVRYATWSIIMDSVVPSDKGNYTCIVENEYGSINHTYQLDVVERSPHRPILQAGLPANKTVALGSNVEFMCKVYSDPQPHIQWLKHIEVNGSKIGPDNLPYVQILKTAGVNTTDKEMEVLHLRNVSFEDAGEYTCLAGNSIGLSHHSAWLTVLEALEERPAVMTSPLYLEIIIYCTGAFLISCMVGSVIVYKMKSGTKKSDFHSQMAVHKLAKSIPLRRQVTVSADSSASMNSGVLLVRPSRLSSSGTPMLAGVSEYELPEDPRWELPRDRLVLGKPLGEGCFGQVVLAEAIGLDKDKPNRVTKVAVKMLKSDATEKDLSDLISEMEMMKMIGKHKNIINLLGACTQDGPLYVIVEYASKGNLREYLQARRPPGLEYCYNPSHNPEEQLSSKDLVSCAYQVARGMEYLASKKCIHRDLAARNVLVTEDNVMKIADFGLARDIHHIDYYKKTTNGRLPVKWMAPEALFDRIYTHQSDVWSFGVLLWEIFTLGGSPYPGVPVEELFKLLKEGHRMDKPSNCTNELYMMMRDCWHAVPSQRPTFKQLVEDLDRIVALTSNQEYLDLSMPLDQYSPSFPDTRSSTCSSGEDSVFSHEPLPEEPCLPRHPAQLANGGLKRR

With `CNS(=O)(=O)c1ccc2c(c1)/C(=C1\CCc3c1[nH]c(C)c3C(=O)N1CCCC1CN1CCCC1)C(=O)N2` (stereo in doubt) [Example 13, 3-[2-Methyl-3-((R)-2-pyrrolidin-1-ylmethyl-pyrrolidine-1-carbonyl)-4,5-dihydro-1H-cyclopenta[b]pyrrol-(6Z)-ylidene]-2-oxo-2,3-dihydro-1H-indole-5-sulfonic acid methylamide] as the compound, how does the IC50 read?
The IC50 was 15 nM.

For `CCOC(=O)c1c(C)[nH]c2c1CC/C2=C1/C(=O)Nc2ccccc21` [Example 1, 2-Methyl-6-[2-oxo-1,2-dihydro-indol-(3Z)-ylidene]-1,4,5,6-tetrahydro-cyclopenta[b]pyrrole-3-carboxylic acid ethyl ester], which IC50 is on record?
The IC50 was 79 nM.

How did the IC50 turn out when `CCOC(=O)c1c(C)[nH]c2c1CC/C2=C1/C(=O)Nc2ccc(S(=O)(=O)Cc3c(Cl)cccc3Cl)cc21` [Example 2, 6-[5-(2,6-Dichloro-phenylmethanesulfonyl)-2-oxo-1,2-dihydro-indol-(3Z)-ylidene]-2-methyl-1,4,5,6-tetrahydro-cyclopenta[b]pyrrole-3-carboxylic acid ethyl ester] was run?
Its IC50 is 2500 nM.

For `CCOC(=O)c1c(C)[nH]c2c1CC/C2=C1/C(=O)Nc2ccc(S(=O)(=O)NC)cc21` [Example 3, 2-Methyl-6-[5-methylsulfamoyl-2-oxo-1,2-dihydro-indol-(3Z)-ylidene]-1,4,5,6-tetrahydro-cyclopenta[b]pyrrole-3-carboxylic acid ethyl ester], which IC50 is on record?
Its IC50 is 600 nM.

How did the IC50 turn out when `CNS(=O)(=O)c1ccc2c(c1)/C(=C1\CCc3cc(C)[nH]c31)C(=O)N2` [Example 4, 3-[2-Methyl-4,5-dihydro-1H-cyclopenta[b]pyrrol-(6Z)-ylidene]-2-oxo-2,3-dihydro-1H-indole-5-sulfonic acid methylamide] was run?
The IC50 was 25 nM.

How did the IC50 turn out when `CNS(=O)(=O)c1ccc2c(c1)/C(=C1\CCc3c1[nH]c(C)c3C(=O)O)C(=O)N2` [Example 5, 2-Methyl-6-[5-methylsulfamoyl-2-oxo-1,2-dihydro-indol-(3Z)-ylidene]-1,4,5,6-tetrahydro-cyclopenta[b]pyrrole-3-carboxylic acid] was run?
Its IC50 is 22 nM.

With `CCOC(=O)c1c(C)[nH]c2c1CC/C2=C1/C(=O)Nc2ccc(S(C)(=O)=O)cc21` [Example 6, 6-[5-Methanesulfonyl-2-oxo-1,2-dihydro-indol-(3Z)-ylidene]-2-methyl-1,4,5,6-tetrahydro-cyclopenta[b]pyrrole-3-carboxylic acid ethyl ester] as the compound, how does the IC50 read?
Its IC50 is 14500 nM.

Which IC50 does the source give for `CCOC(=O)c1c(C)[nH]c2c1CC/C2=C1/C(=O)Nc2ccc(S(=O)(=O)N(C)C)cc21` [Example 7, 6-[5-Dimethylsulfamoyl-2-oxo-1,2-dihydro-indol-(3Z)-ylidene]-2-methyl-1,4,5,6-tetrahydro-cyclopenta[b]pyrrole-3-carboxylic acid ethyl ester] here?
The IC50 was greater than 20000 nM.

`CCOC(=O)c1c(C)[nH]c2c1CC/C2=C1/C(=O)Nc2ccc(S(=O)(=O)NC(C)C)cc21` [Example 8, 6-[5-Isopropylsulfamoyl-2-oxo-1,2-dihydro-indol-(3Z)-ylidene]-2-methyl-1,4,5,6-tetrahydro-cyclopenta[b] pyrrole-3-carboxylic acid ethyl ester] was tested. Which IC50 did it give?
The IC50 was greater than 20000 nM.

With `CCOC(=O)c1c(C)[nH]c2c1CC/C2=C1/C(=O)Nc2ccc(S(=O)(=O)CC)cc21` [Example 9, 6-[5-Ethanesulfonyl-2-oxo-1,2-dihydro-indol-(3Z)-ylidene]-2-methyl-1,4,5,6-tetrahydro-cyclopenta[b]pyrrole-3-carboxylic acid ethyl ester] as the compound, how does the IC50 read?
The IC50 was 530 nM.

How did the IC50 turn out when `CNS(=O)(=O)c1ccc2c(c1)/C(=C1\CCc3c1[nH]c(C)c3C(=O)NCC(O)CN1CCCC1)C(=O)N2` (centres unmarked) [Example 10, 2-Methyl-6-[5-methylsulfamoyl-2-oxo-1,2-dihydro-indol-(3Z)-ylidene]-1,4,5,6-tetrahydro-cyclopenta[b]pyrrole-3-carboxylic acid (2-hydroxy-3-pyrrolidin-1-yl-propyl)-amide] was run?
The IC50 was less than 18 nM.

With `CNS(=O)(=O)c1ccc2c(c1)/C(=C1\CCc3c1[nH]c(C)c3C(=O)NCC(O)CNC1CC1)C(=O)N2` (centres unmarked) [Example 11, 2-Methyl-6-[5-methylsulfamoyl-2-oxo-1,2-dihydro-indol-(3Z)-ylidene]-1,4,5,6-tetrahydro-cyclopenta[b]pyrrole-3-carboxylic acid (3-cyclopropylamino-2-hydroxy-propyl)-amide] as the compound, how does the IC50 read?
Its IC50 is 20 nM.

Which IC50 does the source give for `CNS(=O)(=O)c1ccc2c(c1)/C(=C1\CCc3c1[nH]c(C)c3C(=O)NCCN(C)C)C(=O)N2` [Example 12, 2-Methyl-6-[5-methylsulfamoyl-2-oxo-1,2-dihydro-indol-(3Z)-ylidene]-1,4,5,6-tetrahydro-cyclopenta[b]pyrrole-3-carboxylic acid (2-dimethylamino-ethyl)-amide] here?
The IC50 was 17 nM.

How did the IC50 turn out when `CCOC(=O)c1c(C)[nH]c2c1CC/C2=C1/C(=O)Nc2ccc(S(N)(=O)=O)cc21` [Example 14, 2-Methyl-6-[2-oxo-5-sulfamoyl-1,2-dihydro-indol-(3Z)-ylidene]-1,4,5,6-tetrahydro-cyclopenta[b]pyrrole-3-carboxylic acid ethyl ester] was run?
The IC50 was 100 nM.

How did the IC50 turn out when `CNS(=O)(=O)c1ccc2c(c1)C(=C1CCCC1)C(=O)N2` [Example 15, 3-Cyclopentylidene-2-oxo-2,3-dihydro-1H-indole-5-sulfonic acid methylamide] was run?
The IC50 was greater than 20000 nM.

`CNS(=O)(=O)c1ccc2c(c1)/C(=C1\CCc3c1[nH]c(C)c3S(C)(=O)=O)C(=O)N2` [Example 16, 3-[3-Methanesulfonyl-2-methyl-4,5-dihydro-1H-cyclopenta[b]pyrrol-(6Z)-ylidene]-2-oxo-2,3-dihydro-1H-indole-5-sulfonic acid methylamide] was tested. Which IC50 did it give?
Its IC50 is 15 nM.

`CNS(=O)(=O)c1ccc2c(c1)/C(=C1\CC(CC(=O)O)c3cc(OC)ccc31)C(=O)N2` (centres unmarked) [Example 17, {6-Methoxy-3-[5-methylsulfamoyl-2-oxo-1,2-dihydro-indol-(3Z)-ylidene]-indan-1-yl}-acetic acid] was tested. Which IC50 did it give?
The IC50 was 40 nM.

With `Cc1[nH]c2c(c1C(=O)N1CCC[C@H]1CN1CCCC1)CC/C2=C1/C(=O)Nc2ccc(F)cc21` [Example 18, 5-Fluoro-3-[2-methyl-3-((S)-2-pyrrolidin-1-ylmethyl-pyrrolidine-1-carbonyl)-4,5-dihydro-1H-cyclopenta[b]pyrrol-(6Z)-ylidene]-1,3-dihydro-indol-2-one] as the compound, how does the IC50 read?
Its IC50 is 80 nM.

How did the IC50 turn out when `COc1ccc2c(c1)NC(=O)/C2=C1/CCc2c1[nH]c(C)c2C(=O)N1CCC[C@H]1CN1CCCC1` [Example 19, 6-Methoxy-3-[2-methyl-3-((S)-2-pyrrolidin-1-ylmethyl-pyrrolidine-1-carbonyl)-4,5-dihydro-1H-cyclopenta[b]pyrrol-(6Z)-ylidene]-1,3-dihydro-indol-2-one] was run?
The IC50 was 210 nM.

`COc1ccccc1-c1ccc2c(c1)NC(=O)/C2=C1/CCc2c1[nH]c(C)c2C(=O)N1CCC[C@H]1CN1CCCC1` [Example 20] was tested. Which IC50 did it give?
The IC50 was 480 nM.

How did the IC50 turn out when `Cc1[nH]c2c(c1C(=O)N1CCC[C@H]1CN1CCCC1)CC/C2=C1/C(=O)Nc2c(Cl)cccc21` [Example 21, 7-Chloro-3-[2-methyl-3-((S)-2-pyrrolidin-1-ylmethyl-pyrrolidine-1-carbonyl)-4,5-dihydro-1H-cyclopenta[b]pyrrol-(6Z)-ylidene]-1,3-dihydro-indol-2-one] was run?
Its IC50 is 1900 nM.

How did the IC50 turn out when `Cc1[nH]c2c(c1C(=O)N1CCC[C@H]1CN1CCCC1)CC/C2=C1/C(=O)Nc2ncccc21` [Example 22, 3-[2-Methyl-3-((S)-2-pyrrolidin-1-ylmethyl-pyrrolidine-1-carbonyl)-4,5-dihydro-1H-cyclopenta[b]pyrrol-(6Z)-ylidene]-1,3-dihydro-pyrrolo[2,3-b]pyridin-2-one] was run?
Its IC50 is 2070 nM.

How did the IC50 turn out when `COc1ccc(-c2ccc3c(c2)NC(=O)/C3=C2/CCc3c2[nH]c(C)c3C(=O)N2CCC[C@H]2CN2CCCC2)cc1` [Example 23, 6-(4-Methoxy-phenyl)-3-[2-methyl-3-((S)-2-pyrrolidin-1-ylmethyl-pyrrolidine-1-carbonyl)-4,5-dihydro-1H-cyclopenta[b]pyrrol-(6Z)-ylidene]-1,3-dihydro-indol-2-one] was run?
The IC50 was 230 nM.
